ChEMBL document CHEMBL3352218, “Structural basis for inhibition of mycobacterial and human adenosine kinase by 7-substituted 7-(Het)aryl-7-deazaadenine ribonucleosides” (J Med Chem, 2014)
Values after ≈ are worked out from the molar mass of the structure shown. Active and inactive are the calls of the source. The rule behind the calls is not given here.

Legend:
BJ = assay: Cytotoxicity against human BJ cells by MTT assay; type: functional
MRC5 = assay: Cytotoxicity against human MRC5 cells by MTT assay; type: functional
Adenosine kinase [1] = target: T1, Adenosine kinase (Homo sapiens, UniProt P55263); assay: Inhibition of human ADK expressed in Escherichia coli BL21(DE3) cells using [3H]adenosine by liquid scintillation counting method
Target sequence in this assay (P55263 whole entry): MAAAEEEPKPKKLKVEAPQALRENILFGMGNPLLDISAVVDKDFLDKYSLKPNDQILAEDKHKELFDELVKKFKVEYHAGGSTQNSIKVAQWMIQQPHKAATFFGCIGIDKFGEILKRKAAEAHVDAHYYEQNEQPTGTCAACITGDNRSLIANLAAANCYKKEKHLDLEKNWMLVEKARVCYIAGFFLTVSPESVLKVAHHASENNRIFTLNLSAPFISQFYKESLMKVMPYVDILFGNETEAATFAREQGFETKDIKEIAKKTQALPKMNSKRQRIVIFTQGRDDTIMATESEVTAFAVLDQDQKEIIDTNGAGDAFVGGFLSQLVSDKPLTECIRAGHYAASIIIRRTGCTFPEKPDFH

[2] = Inhibition of Mycobacterium tuberculosis ADK expressed in Escherichia coli BL21(DE3) cells using [3H]adenosine by liquid scintillation counting method
[3] = test system: Mycobacterium tuberculosis; assay: Antimycobacterial activity against Mycobacterium tuberculosis H37Rv My 331/88 assessed as microbial growth inhibition incubated for 14 days; type: functional; settings: H37Rv My 331/88, 336 h
[4] = test system: Mycobacterium tuberculosis; assay: Activity of Mycobacterium tuberculosis ADK expressed in Escherichia coli BL21(DE3) cells assessed as compound phosphorylation by measuring conversion of compound to 5'-phosphate
Adenosine kinase [5] = target: T1, Adenosine kinase; assay: Activity of human ADK expressed in Escherichia coli BL21(DE3) cells assessed as compound phosphorylation by measuring conversion of compound to 5'-phosphate; parameters: concentration or dose not given beside the values
Target sequence in this assay (P55263 2-362 limits assumed): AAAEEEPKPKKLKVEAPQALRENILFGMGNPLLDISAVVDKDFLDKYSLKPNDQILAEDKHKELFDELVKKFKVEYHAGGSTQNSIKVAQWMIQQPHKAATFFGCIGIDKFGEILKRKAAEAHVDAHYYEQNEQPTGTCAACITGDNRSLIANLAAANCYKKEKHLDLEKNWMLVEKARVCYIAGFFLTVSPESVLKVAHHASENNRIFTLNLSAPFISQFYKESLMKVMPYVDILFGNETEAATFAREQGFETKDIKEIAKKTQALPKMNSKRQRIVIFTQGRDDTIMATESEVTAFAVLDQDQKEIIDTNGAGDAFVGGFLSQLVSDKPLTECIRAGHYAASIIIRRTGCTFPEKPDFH

Cc1ccc(-c2cn([C@@H]3O[C@H](CO)[C@@H](O)[C@H]3O)c3ncnc(N)c23)cc1C
CC50 (BJ): 57.3 µM
CC50 (MRC5): 37.9 µM
IC50 (Adenosine kinase [1]): > 20 µM
IC50 [2]: 4.9 µM
MIC [3]: 8 µM (≈ 2.96 µg/mL)
Activity [4]: inactive

Nc1ncnc2c1c(-c1ccc3c(c1)OCO3)cn2[C@@H]1O[C@H](CO)[C@@H](O)[C@H]1O
CC50 (BJ): 15.5 µM
CC50 (MRC5): 46 µM
IC50 (Adenosine kinase [1]): > 10 µM
IC50 [2]: > 10 µM
MIC [3]: 8 µM (≈ 3.09 µg/mL)
Activity [4]: inactive

CC(C)(C)c1ccc(-c2cn([C@@H]3O[C@H](CO)[C@@H](O)[C@H]3O)c3ncnc(N)c23)cc1
CC50 (BJ): > 100 µM
CC50 (MRC5): 96.3 µM
IC50 (Adenosine kinase [1]): > 20 µM
IC50 [2]: > 10 µM
MIC [3]: 62.5 µM (≈ 24.9 µg/mL)
Activity [4]: inactive

Nc1ncnc2c1c(-c1cccs1)cn2[C@@H]1O[C@H](CO)[C@@H](O)[C@H]1O
CC50 (BJ): 65.4 µM
CC50 (MRC5): 39.4 µM
Activity (Adenosine kinase [5]): 2%
IC50 [2]: > 10 µM
MIC [3]: 8 µM (≈ 2.79 µg/mL)
Activity [4]: inactive

Nc1ncnc2c1c(-c1ccc3ccccc3c1)cn2[C@@H]1O[C@H](CO)[C@@H](O)[C@H]1O
CC50 (BJ): 13.9 µM
CC50 (MRC5): 13.6 µM
IC50 [2]: 5.33 µM
MIC [3]: 2 µM (≈ 0.785 µg/mL)
Activity [4]: inactive

CC(C)c1ccc(-c2cn([C@@H]3O[C@H](CO)[C@@H](O)[C@H]3O)c3ncnc(N)c23)cc1
CC50 (BJ): 63.9 µM
CC50 (MRC5): 52.9 µM
IC50 (Adenosine kinase [1]): > 20 µM
IC50 [2]: > 10 µM
MIC [3]: 16 µM (≈ 6.15 µg/mL)
Activity [4]: inactive

Nc1ncnc2c1c(-c1ccc(C(F)(F)F)cc1)cn2[C@@H]1O[C@H](CO)[C@@H](O)[C@H]1O
CC50 (BJ): 62 µM
CC50 (MRC5): 78.8 µM
IC50 (Adenosine kinase [1]): > 10 µM
IC50 [2]: > 10 µM
MIC [3]: 4 µM (≈ 1.64 µg/mL)
Activity [4]: inactive

Nc1ncnc2c1c(-c1ncc[nH]1)cn2[C@@H]1O[C@H](CO)[C@@H](O)[C@H]1O
CC50 (BJ): 1.48 µM
CC50 (MRC5): 0.15 µM
Activity (Adenosine kinase [5]): 19%
IC50 (Adenosine kinase [1]): > 20 µM
IC50 [2]: > 3 µM
MIC [3]: > 250 µM
Activity [4]: inactive

Nc1ncnc2c1c(-c1ccc3c4c(cccc14)CC3)cn2[C@@H]1O[C@H](CO)[C@@H](O)[C@H]1O
CC50 (BJ): 23.1 µM
CC50 (MRC5): > 100 µM
IC50 (Adenosine kinase [1]): > 10 µM
IC50 [2]: > 10 µM
MIC [3]: 16 µM (≈ 6.7 µg/mL)
Activity [4]: inactive

Nc1ncnc2c1c(-c1ccsc1)cn2[C@@H]1O[C@H](CO)[C@@H](O)[C@H]1O
CC50 (BJ): 12.9 µM
CC50 (MRC5): 42.5 µM
Activity (Adenosine kinase [5]): 2%
IC50 [2]: 6.6 µM
MIC [3]: 8 µM (≈ 2.79 µg/mL)
Activity [4]: inactive

Nc1ncnc2c1c(-c1cc[nH]c1)cn2[C@@H]1O[C@H](CO)[C@@H](O)[C@H]1O
CC50 (BJ): 10.1 µM
CC50 (MRC5): 5.05 µM
Activity (Adenosine kinase [5]): 20%
IC50 (Adenosine kinase [1]): 4.5 µM
IC50 [2]: > 10 µM
MIC [3]: 62.5 µM (≈ 20.7 µg/mL)
Activity [4]: inactive

CC(C)Oc1ccc(-c2cn([C@@H]3O[C@H](CO)[C@@H](O)[C@H]3O)c3ncnc(N)c23)cc1
CC50 (BJ): 59.9 µM
CC50 (MRC5): 50.2 µM
IC50 (Adenosine kinase [1]): > 10 µM
IC50 [2]: 13.1 µM
MIC [3]: 32 µM (≈ 12.8 µg/mL)
Activity [4]: inactive

Nc1ncnc2c1c(-c1ccccc1)cn2[C@@H]1O[C@H](CO)[C@@H](O)[C@H]1O
CC50 (BJ): 50.9 µM
CC50 (MRC5): 21 µM
IC50 [2]: > 10 µM
MIC [3]: 8 µM (≈ 2.74 µg/mL)
Activity [4]: inactive

COc1cc(-c2cn([C@@H]3O[C@H](CO)[C@@H](O)[C@H]3O)c3ncnc(N)c23)cc(OC)c1OC
CC50 (BJ): > 100 µM
CC50 (MRC5): > 100 µM
IC50 (Adenosine kinase [1]): > 10 µM
IC50 [2]: > 10 µM
MIC [3]: 8 µM (≈ 3.46 µg/mL)
Activity [4]: inactive

COc1ccc(-c2cn([C@@H]3O[C@H](CO)[C@@H](O)[C@H]3O)c3ncnc(N)c23)cc1
CC50 (BJ): 21.9 µM
CC50 (MRC5): 61.4 µM
IC50 (Adenosine kinase [1]): > 5 µM
IC50 [2]: > 10 µM
MIC [3]: 16 µM (≈ 5.96 µg/mL)
Activity [4]: inactive

Nc1ncnc2c1c(-c1cccc3ccccc13)cn2[C@@H]1O[C@H](CO)[C@@H](O)[C@H]1O
CC50 (BJ): 90.6 µM
CC50 (MRC5): 94.4 µM
IC50 [2]: > 10 µM
MIC [3]: 32 µM (≈ 12.6 µg/mL)
Activity [4]: inactive

Nc1ncnc2c1c(-c1cc3ccccc3c3ccccc13)cn2[C@@H]1O[C@H](CO)[C@@H](O)[C@H]1O
CC50 (BJ): > 100 µM
CC50 (MRC5): 66 µM
IC50 (Adenosine kinase [1]): > 10 µM
IC50 [2]: > 10 µM
MIC [3]: 32 µM (≈ 14.2 µg/mL)
Activity [4]: inactive

Nc1ncnc2c1c(-c1cn[nH]c1)cn2[C@@H]1O[C@H](CO)[C@@H](O)[C@H]1O
CC50 (BJ): 48.9 µM
CC50 (MRC5): 71.2 µM
Activity (Adenosine kinase [5]): 9%
IC50 (Adenosine kinase [1]): > 10 µM
IC50 [2]: > 5 µM
MIC [3]: 125 µM (≈ 41.5 µg/mL)
Activity [4]: inactive

Nc1ncnc2c1c(-c1ccc(-c3ccc4ccccc4c3)cc1)cn2[C@@H]1O[C@H](CO)[C@@H](O)[C@H]1O
CC50 (BJ): 0.12 µM
CC50 (MRC5): 64.2 µM
IC50 (Adenosine kinase [1]): > 20 µM
IC50 [2]: > 10 µM
MIC [3]: 62.5 µM (≈ 29.3 µg/mL)
Activity [4]: inactive

Nc1ncnc2c1c(-c1ccc(-c3ccccc3)cc1)cn2[C@@H]1O[C@H](CO)[C@@H](O)[C@H]1O
CC50 (BJ): 40.6 µM
CC50 (MRC5): 93.7 µM
IC50 (Adenosine kinase [1]): > 20 µM
IC50 [2]: 7.67 µM
MIC [3]: 4 µM (≈ 1.67 µg/mL)
Activity [4]: inactive

NNC(=O)c1ccncc1 [ISONIAZID]
MIC [3]: 0.5 µM (≈ 0.0686 µg/mL)

Nc1ncnc2c1c(-c1ccc(COc3cccc4ccccc34)cc1)cn2[C@@H]1O[C@H](CO)[C@@H](O)[C@H]1O
CC50 (BJ): > 100 µM
CC50 (MRC5): 92.1 µM
IC50 (Adenosine kinase [1]): > 20 µM
IC50 [2]: > 10 µM
MIC [3]: 16 µM (≈ 7.98 µg/mL)
Activity [4]: inactive

CSc1ccc(-c2cn([C@@H]3O[C@H](CO)[C@@H](O)[C@H]3O)c3ncnc(N)c23)cc1
CC50 (BJ): 18 µM
CC50 (MRC5): 45.6 µM
IC50 [2]: > 10 µM
MIC [3]: 4 µM (≈ 1.55 µg/mL)
Activity [4]: inactive

Nc1ncnc2c1c(-c1cccc3c1oc1ccccc13)cn2[C@@H]1O[C@H](CO)[C@@H](O)[C@H]1O
CC50 (BJ): > 100 µM
CC50 (MRC5): 100 µM
IC50 (Adenosine kinase [1]): > 10 µM
IC50 [2]: 0.6 µM
MIC [3]: 4 µM (≈ 1.73 µg/mL)
Activity [4]: inactive

Nc1ncnc2c1c(-c1c[nH]cn1)cn2[C@@H]1O[C@H](CO)[C@@H](O)[C@H]1O
CC50 (BJ): 0.12 µM
CC50 (MRC5): 0.33 µM
Activity (Adenosine kinase [5]): 47%
IC50 (Adenosine kinase [1]): 13 µM
IC50 [2]: > 10 µM
MIC [3]: > 250 µM
Activity [4]: inactive

Nc1ncnc2c1c(-c1ccoc1)cn2[C@@H]1O[C@H](CO)[C@@H](O)[C@H]1O
CC50 (BJ): 91.5 µM
CC50 (MRC5): 67.9 µM
Activity (Adenosine kinase [5]): 9%
IC50 [2]: > 10 µM
MIC [3]: 16 µM (≈ 5.32 µg/mL)
Activity [4]: inactive

Nc1ncnc2c1c(-c1cccc3c1Sc1ccccc1S3)cn2[C@@H]1O[C@H](CO)[C@@H](O)[C@H]1O
CC50 (BJ): > 100 µM
CC50 (MRC5): 68.5 µM
IC50 (Adenosine kinase [1]): > 10 µM
IC50 [2]: 2.06 µM
MIC [3]: 62.5 µM (≈ 30 µg/mL)
Activity [4]: inactive

Nc1ncnc2c1c(-c1cc3ccccc3o1)cn2[C@@H]1O[C@H](CO)[C@@H](O)[C@H]1O
CC50 (BJ): 21.2 µM
CC50 (MRC5): 35.1 µM
IC50 [2]: 1.8 µM
MIC [3]: 16 µM (≈ 6.12 µg/mL)
Activity [4]: inactive

Nc1ncnc2c1c(-c1cc[nH]n1)cn2[C@@H]1O[C@H](CO)[C@@H](O)[C@H]1O
CC50 (BJ): 9.51 µM
CC50 (MRC5): 0.18 µM
Activity (Adenosine kinase [5]): 7%
IC50 [2]: > 10 µM
MIC [3]: > 250 µM
Activity [4]: inactive

Nc1ncnc2c1c(/C=C/c1ccccc1)cn2[C@@H]1O[C@H](CO)[C@@H](O)[C@H]1O
CC50 (BJ): 19.6 µM
CC50 (MRC5): 48.2 µM
IC50 (Adenosine kinase [1]): > 10 µM
IC50 [2]: 0.9 µM
MIC [3]: 8 µM (≈ 2.95 µg/mL)
Activity [4]: inactive
